# Where a name gives a salt, the structure may show the parent alone.
# Experiments:
# corneal ulcerations = settings: directly applied; alkali burned rabbit; cited from earlier work
# [1] = compared with cysteine; cited from earlier work
# corneal ulceration = settings: human; cited from earlier work
# collagenase = settings: literature or U.S. Pat. No. 4,297,372; cited from earlier work
# [2] = Binding to insoluble collagenous structures; settings: teeth, dentin, gingiva and the like
# [3] = In vitro binding (competition) assay with 14C reference compound on tooth powder; settings: 1 mg tooth powder, PBS, 60 minutes at 37° C.; relative to reference 6,6'-[ureylenebis(m-phenylenecarbonylimino)] analog; >1 = less efficient
# Source text: Using (radioactive) ^14 C-6,6'-[ureylenebis(m-phenylenecarbonylimino)]bis[4-hydroxy-2-naphthalenesulfonic acid]disodium salt, an in vitro binding (competition) assay procedure has been established which involves an insoluble substrate such as tooth powder which will bind the ^14 C-6,6'-[ureylenebis(m-phenylenecarbonylimino)]bis[4-hydroxy-2-naphthalenesulfonic acid]disodium salt. The amount of ^14 C-6,6'-[ureylenebis(m-phenylenecarbonylimino)]bis[4-hydroxy-2-naphthalenesulfonic acid]disodium salt bound is determined by washing away the unbound radioactive compound and counting CPM (counts per minute) of the insoluble tooth powder/^14 C-6,6'-[ureylenebis(m-phenylenecarbonylimino)]bis[4-hydroxy-2-naphthalenesulfonic acid]disodium salt complex. […] The inhibiting effect of the test compound on binding compared to non-radioactive 6,6'-[ureylenebis(m-phenylenecarbonylimino)]bis[4-hydroxy-2-naphthalenesulfonic acid]disodium salt was determined as follows: A one mg amount of tooth powder was incubated in one ml of phosphate buffered saline (PBS) with 10 μg of ^14 C-6,6'-[ureylenebis(m-phenylenecarbonylimino)]bis[4-hydroxy-2-naphthalenesulfonic acid]disodium salt and varying dose amounts (ranging from 0 to 2 mg) of the same cold (non-radioactive) compound. […]
# [4] = target: T1, human skin fibroblast collagenase (Homo sapiens, UniProt P03956); assay: Collagenase Assay, Test Code 006 (degradation of radiolabeled native collagen fibrils); type: biochemical; settings: test conc.: 30 μg/ml; ratio of weight (μg) for 50% inhibition vs reference 6,6'-[ureylenebis(m-phenylenecarbonylimino)] analog; >1 = less active
# T1 construct: endogenous in cells; host or cells: human skin fibroblasts
# T1 sequence (P03956 100-469): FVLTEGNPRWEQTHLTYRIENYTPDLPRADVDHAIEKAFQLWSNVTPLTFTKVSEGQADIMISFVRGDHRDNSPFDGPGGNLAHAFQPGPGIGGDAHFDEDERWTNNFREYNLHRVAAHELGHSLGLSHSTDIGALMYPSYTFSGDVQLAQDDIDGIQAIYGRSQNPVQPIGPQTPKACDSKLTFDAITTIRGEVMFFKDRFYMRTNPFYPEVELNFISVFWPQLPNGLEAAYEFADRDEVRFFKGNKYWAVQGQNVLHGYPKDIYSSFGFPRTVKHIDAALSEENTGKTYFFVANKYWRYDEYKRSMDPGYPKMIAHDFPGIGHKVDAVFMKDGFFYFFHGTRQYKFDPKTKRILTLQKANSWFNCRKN
# Experimental: (i) Collagenase Assay--Test Code 006
# A collagenase assay was performed by a modification of the method of Harper, et al., Biochem., 10, 3035 (1971). In a typical assay (total volume of 0.45 ml), 100 μl of the activated enzyme was added to the ^14 C-labeled collagen fibrils (250 μl) followed by 100 μl of 50 mM cacodylate, pH 7.4, containing 5 mM calcium chloride. After incubation at 37° C. for 16 hours, the tubes were centrifuged in a Beckman microfuge for five minutes at full speed. An aliquot (200 μl) of the supernatant, representing collagenase digestion products of the fibril, was assayed for radioactivity. The effect of the test compound on collagen degradation by collagenase was examined as follows:
# Varying concentrations of the test compound (in distilled water) were added to the assay tubes containing active collagenase (total volume 450 μl) and after 16 hours the amount of radioactivity in the supernatant was determined. Appropriate blanks and trypsin controls were run in parallel.
# The result is expressed as an ID50 collagenase value which represents a ratio of the weight (μg) of the representative compound required for 50% inhibition of collagenase over the weight (μg) of 6,6'-[ureylenebis(m-phenylenecarbonylimino)]bis[4-hydroxy-2-naphthalenesulfonic acid]disodium salt required for 50% inhibition of collagenase.
Compound,collagenase inhibition / inhibition of collagen degradation (collagenase),other results
CC(=O)N[C@@H](CS)C(=O)O [acetylcysteine],–,frequency of corneal ulceration (corneal ulcerations): reduce the frequency of ulceration; stability [1]: greater stability; treatment of acute and chronic corneal ulceration (corneal ulceration): effective in the treatment of acute and chronic corneal ulceration
α2 -macroglobulin: serum component; naturally occurring collagenase inhibitor,collagenase inhibitors,–
Cc1cc(-c2ccc(/N=N/c3c(S(=O)(=O)O)cc4cc(S(=O)(=O)O)cc(N)c4c3O)c(C)c2)ccc1/N=N/c1c(S(=O)(=O)O)cc2cc(S(=O)(=O)O)cc(N)c2c1O [trypan blue],inhibiting the activity of collagenase,–
"O=C(Nc1cccc(C(=O)Nc2ccc3cc(S(=O)(=O)O)cc(O)c3c2)c1)Nc1cccc(C(=O)Nc2ccc3cc(S(=O)(=O)O)cc(O)c3c2)c1 [6,6'-[ureylenebis(m-phenylenecarbonylimino)]bis[4-hydroxy-2-naphthalenesulfonic acid]disodium salt]",inhibitor of the degradation of collagen,reversibility and saturability of binding [2]: saturable and reversible
O=C([O-])CN(CCN(CC(=O)[O-])CC(=O)[O-])CC(=O)[O-].[Ca+2].[Ca+2] [Calcium ethylenediaminetetraacetate],–,frequency of corneal ulceration (corneal ulcerations): reduce the frequency of ulceration
"O=C(Nc1ccc(S(=O)(=O)Nc2ccc3cc(S(=O)(=O)O)cc(O)c3c2)cc1)Nc1ccc(S(=O)(=O)Nc2ccc3cc(S(=O)(=O)O)cc(O)c3c2)cc1 [6,6'-[Ureylenebis(p-phenylenesulfonylimino)]bis-[4-hydroxy-2-naphthalenesulfonic acid]disodium salt]",–,ID50 Binding Ratio [3]: 1.55; ID50 Collagenase Ratio [4]: 1.73
N[C@@H](CS)C(=O)O [cysteine],collagenase inhibitors,treatment of acute and chronic corneal ulceration (corneal ulceration): effective in the treatment of acute and chronic corneal ulceration
sodium auriothiomalate,collagenase inhibitors,–
Cc1ccc(C(=O)Nc2ccc(S(=O)(=O)O)c3cc(S(=O)(=O)O)cc(S(=O)(=O)O)c23)cc1NC(=O)c1cccc(NC(=O)Nc2cccc(C(=O)Nc3cc(C(=O)Nc4ccc(S(=O)(=O)O)c5cc(S(=O)(=O)O)cc(S(=O)(=O)O)c45)ccc3C)c2)c1 [Suramin],not inhibiting the action of collagenase,–
O[C@H](CS)[C@H](O)CS (racemic) [dithiothreitol],collagenase inhibitors,–
"c1cnc2c(c1)ccc1cccnc12 [1,10-phenanthroline]",collagenase inhibitors,–

# From USH83H, “Dental antiplaque agents and inhibitors of connective tissue destruction” (American Cyanamid Company, priority 1985, dated 1986)
